Laboratory results: EP1641803B1, “THIENOPYRIMIDINE DERIVATIVES AS POTASSIUM CHANNEL INHIBITORS” (Xention Limited, priority 2003, dated 2004)

Key:
hKv1.5 = hKv1.5 (Homo sapiens, UniProt P22460); test: Kv1.5 Autopatch Electrophysiology (whole cell patch-clamp); type: cell-based; details: compound at 1µM, room temperature (22-24°C), held at -80mV, step to 0mV for 1000ms, total charge measured
In short: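 Whole-cell automated patch-clamp at 22-24°C, compounds tested at 1µM in external bather (KCl/K-gluconate, pH 7.4; KCl/EGTA pipette). Cells held at -80mV and stepped to 0mV for 1000ms every 5s; only cells with IK > 500 pA and Rseries ≤18 MΩ used. Read-out: total charge over the whole step.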

human Kv1.5 = target: T1, human Kv1.5 (Homo sapiens, UniProt P22460); test: Kv1.5 Rb+ Efflux Assay; type: cell-based; details: inhibition of 86Rb+ efflux through Kv1.5; cells stably transfected with human Kv1.5; 10 point concentration response curves n=2; normalised to 2.5mM 4 amino-pyridine block
T1 construct: expressed in transfected cells
In short: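 Cells stably expressing human Kv1.5 loaded with ⁸⁶Rb⁺ ≥3 h, preincubated 10 min at room temperature with compound, then depolarised with high-KCl (145mM) buffer for 10 min; effluxed ⁸⁶Rb⁺ counted by Cerenkov emission (alternatively ⁸⁵Rb⁺ by atomic absorption). Inhibition normalised to 2.5mM 4-aminopyridine block; IC50 from 10-point curves, n=2, variable-slope sigmoidal fit.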

T1 sequence (P22460 whole entry): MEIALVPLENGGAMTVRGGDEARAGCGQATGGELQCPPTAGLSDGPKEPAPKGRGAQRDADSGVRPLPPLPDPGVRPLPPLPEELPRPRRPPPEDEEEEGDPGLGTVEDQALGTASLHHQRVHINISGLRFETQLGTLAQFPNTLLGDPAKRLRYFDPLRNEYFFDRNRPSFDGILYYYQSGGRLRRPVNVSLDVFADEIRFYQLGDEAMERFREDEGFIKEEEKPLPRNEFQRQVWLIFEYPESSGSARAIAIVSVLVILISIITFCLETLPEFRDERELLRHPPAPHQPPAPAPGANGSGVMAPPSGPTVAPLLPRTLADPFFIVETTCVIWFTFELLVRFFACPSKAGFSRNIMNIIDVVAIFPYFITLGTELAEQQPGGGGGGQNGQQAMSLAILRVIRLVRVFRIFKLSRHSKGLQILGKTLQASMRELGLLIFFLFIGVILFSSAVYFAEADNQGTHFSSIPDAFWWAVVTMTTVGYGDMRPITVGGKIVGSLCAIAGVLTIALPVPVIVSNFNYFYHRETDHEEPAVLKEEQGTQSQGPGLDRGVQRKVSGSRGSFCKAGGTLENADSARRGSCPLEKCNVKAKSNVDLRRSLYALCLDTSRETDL
hKv1.5, sequence (P22460 whole entry): as above

Compound | inhibition at 1 µM (hKv1.5) | IC50 (human Kv1.5)
c1ccc(-c2csc3nc(NCc4ccco4)nc(NCc4ccco4)c23)cc1 [Example 193, N,N'-Bis(2-furylmethyl)-5-phenylthieno[2,3-d]pyrimidine-2,4-diamine] | 89.2% | 2500 nM
c1ccc(COc2nc(NCc3ccco3)c3c(-c4ccccc4)csc3n2)cc1 [Example 195, (2-Benzyloxy-5-phenyl-thieno[2,3-d]pyrimidin-4-yl)-furan-2-ylmethyl-amine] | 90% | 6390 nM
CNc1nc(NCc2ccccn2)c2c(-c3ccccc3)csc2n1 [Example 196, N^2-methyl-5-phenyl-N^4-(pyridin-2-ylmethyl)thieno[2,3-d]pyrimidine-2,4-diamine] | 97% | 40 nM
c1ccc(-c2csc3nc(N4CCOCC4)nc(NCc4ccccn4)c23)cc1 [Example 197, (2-Morpholin-4-yl-5-phenyl-thieno[2,3-d]pyrimidin-4-yl)-pyridin-2-ylmethyl-amine] | 98% | 150 nM
N#Cc1nc(NCc2ccccn2)c2c(-c3ccccc3)csc2n1 [Example 199, 5-Phenyl-4-[(pyridin-2-ylmethyl)-amino]-thieno[2,3-d]pyrimidine-2-carbonitrile] | 99.5% | 6610 nM
CN(C)c1nc(NCc2ccccn2)c2c(-c3ccc(F)cc3)csc2n1 [Example 200, 5-(4-Fluorophenyl)-N^2,N^2-dimethyl-N^4-pyridin-2-ylmethyl-thieno[2,3-d]pyrimidine-2,4-diamine] | 99.3% | 71800 nM
COC(=O)C1CCN(c2nc(NCc3ccccn3)c3c(-c4ccc(F)cc4)csc3n2)CC1 [Example 201, 1-{5-(4-Fluorophenyl)-4-[(pyridin-2-ylmethyl)-amino]-thieno[2,3-d]pyrimidin-2-yl}-piperidine-4-carboxylic acid methyl ester] | 98.2% | 15900 nM
CCOC(=O)CCNc1nc(NCc2ccccn2)c2c(-c3ccccc3)csc2n1 [Example 202, 3-{5-Phenyl-4-[(pyridin-2-ylmethyl)-amino]-thieno[2,3-d]pyrimidin-2-ylamino}-propionic acid ethyl ester] | 98% | 2700 nM
COCCOc1nc(NCc2ccccn2)c2c(-c3ccccc3)csc2n1 [Example 203, [2-(2-Methoxy-ethoxy)-5-phenyl-thieno[2,3-d]pyrimidin-4-yl]-pyridin-2-ylmethyl-amine] | 98% | 480 nM
CNc1nc(NCc2ccccn2)c2c(-c3ccc(F)cc3)csc2n1 [Example 204, 5-(4-Fluorophenyl)-N^2-methyl-N^4-pyridin-2-ylmethyl-thieno[2,3-d]pyrimidine-2,4-diamine] | 97.9% | 4700 nM
Nc1nc(NCc2ccccn2)c2c(-c3ccc(F)cc3)csc2n1 [Example 205, 5-(4-Fluorophenyl)-N^4-pyridin-2-ylmethyl-thieno[2,3-d]pyrimidine-2,4-diamine] | 97.5% | 11900 nM
OCCC1CCN(c2nc(NCc3ccccn3)c3c(-c4ccccc4)csc3n2)CC1 [Example 206, 2-(1-{5-Phenyl-4-[(pyridin-2-ylmethyl)-amino]-thieno[2,3-d]pyrimidin-2-yl}-piperidin-4-yl)-ethanol] | 97.5% | 3410 nM
Fc1ccc(-c2csc3nc(N4CCOCC4)nc(NCc4ccccn4)c23)cc1 [Example 207, [5-(4-Fluorophenyl)-2-morpholin-4-yl-thieno[2,3-d]pyrimidin-4-yl]-pyridin-2-ylmethyl-amine] | 97.2% | 42500 nM
OCCN(CCO)c1nc(NCc2ccccn2)c2c(-c3ccccc3)csc2n1 [Example 208, 2-((2-Hydroxy-ethyl)-{5-phenyl-4-[(pyridin-2-ylmethyl)-amino]-thieno[2,3-d]pyrimidin-2-yl}-amino)-ethanol] | 96.6% | 330 nM
COCCNc1nc(NCc2ccccn2)c2c(-c3ccc(F)cc3)csc2n1 [Example 209, 5-(4-Fluorophenyl)-N^2-(2-methoxy-ethyl)-N^4-pyridin-2-ylmethyl-thieno[2,3-d]pyrimidine-2,4-diamine] | 96% | 1830 nM
OCC(CO)Nc1nc(NCc2ccccn2)c2c(-c3ccccc3)csc2n1 [Example 210, 2-{5-Phenyl-4-[(pyridin-2-ylmethyl)-amino]-thieno[2,3-d]pyrimidin-2-ylamino}-propane-1,3-diol] | 95.6% | 740 nM
CN(C)CCOc1nc(NCc2ccccn2)c2c(-c3ccccc3)csc2n1 [Example 211, [2-(2-Dimethylamino-ethoxy)-5-phenyl-thieno[2,3-d]pyrimidin-4-yl]-pyridin-2-ylmethyl-amine] | 89% | 5370 nM
OCCNc1nc(NCc2ccccn2)c2c(-c3ccc(F)cc3)csc2n1 [Example 212, 2-{5-(4-Fluorophenyl)-4-[(pyridin-2-ylmethyl)-amino]-thieno[2,3-d]pyrimidin-2-ylamino}-ethanol] | 87% | 7630 nM
CCOC(=O)Cc1nc(NCc2ccccn2)c2c(-c3ccccc3)csc2n1 [Example 237, {5-Phenyl-4-[(pyridin-2-ylmethyl)amino]thieno[2,3-d]pyrimidin-2-yl} acetic acid ethyl ester] | 95% | 540 nM
CCOC(=O)Cc1nc(NCc2ccco2)c2c(-c3ccccc3)csc2n1 [Example 238, {4-[(Furan-2-ylmethyl)-amino]-5-phenyl-thieno[2,3-d]pyrimidin-2-yl}-acetic acid ethyl ester] | 96% | 3330 nM
OCCc1nc(NCc2ccccn2)c2c(-c3ccccc3)csc2n1 [Example 250, 2-{5-Phenyl-4-[(pyridin-2-ylmethyl)amino]thieno[2,3-d]pyrimidin-2-yl}ethanol] | 98% | 330 nM
OCCc1nc(NCc2ccco2)c2c(-c3ccccc3)csc2n1 [Example 251, 2-{4-[(Furan-2-ylmethyl)-amino]-5-phenyl-thieno[2,3-d]pyrimidin-2-yl}-ethanol] | 98% | 80 nM
OCC(CO)c1nc(NCc2ccccn2)c2c(-c3ccccc3)csc2n1 [Example 275, 2-{5-Phenyl-4-[(pyridin-2-ylmethyl)-amino]-thieno[2,3-d]pyrimidin-2-yl}-propane-1,3-diol] | 93% | 1530 nM
FC(F)(F)c1ccc(-c2csc3ncnc(NCc4ccccn4)c23)cc1 [Example 313, Pyridin-2-ylmethyl-[5-(4-trifluoromethyl-phenyl)-thieno[2,3-d]pyrimidin-4-yl]-amine] | 98.3% | 2900 nM
c1ccc(CNc2ncnc3scc(-c4ccc5c(c4)OCO5)c23)nc1 [Example 314, (5-Benzo[1,3]dioxol-5-yl-thieno[2,3-d]pyrimidin-4-yl)-pyridin-2-ylmethyl-amine] | 97.3% | 10 nM
c1ccc(CNc2ncnc3scc(-c4ccc5c(c4)OCCO5)c23)nc1 [Example 320, [5-(2,3-Dihydro-benzo[1,4]dioxin-6-yl)-thieno[2,3-d]pyrimidin-4-yl]-pyridin-2-ylmethyl-amine] | 97% | 370 nM
